Laboratory results published in US20140163026A1, “8-ETHYL-6-(ARYL)PYRIDO[2,3-D]PYRIMIDIN-7(8H)-ONES FOR THE TREATMENT OF NERVOUS SYSTEM DISORDERS AND CANCER” (Afraxis Holdings, Inc., priority 2011, published 2014).

Legend:
Format in all cases: biochemical
PAK3 = PAK3 (Homo sapiens, UniProt O75914); assay: In vitro PAK inhibition assay (SelectScreen, Ser/Thr 20 peptide)
Summary of the method: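 PAK3 phosphorylation of Ser/Thr 20 peptide in 50 mM HEPES pH 7.5, 0.01% BRIJ-35, 10 mM MgCl2, 1 mM EGTA, 1% DMSO final; 60 min at room temperature, then 60 min development reaction with fluorescence read-out. 10-point 3-fold titrations; percent phosphorylation from 0% and 100% phosphopeptide controls.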

PAK4 = PAK4 (Homo sapiens, UniProt O96013); assay: as above
PAK4, sequence (O96013 whole entry): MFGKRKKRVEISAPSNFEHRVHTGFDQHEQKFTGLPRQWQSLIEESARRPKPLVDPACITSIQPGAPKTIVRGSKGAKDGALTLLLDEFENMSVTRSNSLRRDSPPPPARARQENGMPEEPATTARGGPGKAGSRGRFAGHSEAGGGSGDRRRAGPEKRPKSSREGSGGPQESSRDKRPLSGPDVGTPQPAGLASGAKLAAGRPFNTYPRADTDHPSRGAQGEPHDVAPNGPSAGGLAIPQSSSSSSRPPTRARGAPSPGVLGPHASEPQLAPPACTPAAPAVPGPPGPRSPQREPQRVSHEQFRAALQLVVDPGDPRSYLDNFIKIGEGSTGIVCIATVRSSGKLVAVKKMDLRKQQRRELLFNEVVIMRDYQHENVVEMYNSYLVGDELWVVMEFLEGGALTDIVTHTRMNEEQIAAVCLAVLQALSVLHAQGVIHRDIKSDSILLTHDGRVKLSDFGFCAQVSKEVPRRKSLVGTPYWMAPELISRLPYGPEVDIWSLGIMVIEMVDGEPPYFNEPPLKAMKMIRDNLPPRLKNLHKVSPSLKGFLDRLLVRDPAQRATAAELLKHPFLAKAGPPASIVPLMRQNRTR
Summary of the method: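 FRET-based Ser/Thr 20 peptide phosphorylation: 0.1-0.75 ng PAK4, 2 μM peptide in 50 mM HEPES pH 7.5, 10 mM MgCl2, 1 mM EGTA, 0.01% BRIJ-35, 1% DMSO; 60 min at room temperature, then 60 min protease development. 10-point 3-fold titrations; IC50 from sigmoidal fit.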

PAK2 (PAK65) = PAK2 (PAK65) (Homo sapiens, UniProt Q13177); assay: as above
PAK2 (PAK65), sequence (Q13177 whole entry): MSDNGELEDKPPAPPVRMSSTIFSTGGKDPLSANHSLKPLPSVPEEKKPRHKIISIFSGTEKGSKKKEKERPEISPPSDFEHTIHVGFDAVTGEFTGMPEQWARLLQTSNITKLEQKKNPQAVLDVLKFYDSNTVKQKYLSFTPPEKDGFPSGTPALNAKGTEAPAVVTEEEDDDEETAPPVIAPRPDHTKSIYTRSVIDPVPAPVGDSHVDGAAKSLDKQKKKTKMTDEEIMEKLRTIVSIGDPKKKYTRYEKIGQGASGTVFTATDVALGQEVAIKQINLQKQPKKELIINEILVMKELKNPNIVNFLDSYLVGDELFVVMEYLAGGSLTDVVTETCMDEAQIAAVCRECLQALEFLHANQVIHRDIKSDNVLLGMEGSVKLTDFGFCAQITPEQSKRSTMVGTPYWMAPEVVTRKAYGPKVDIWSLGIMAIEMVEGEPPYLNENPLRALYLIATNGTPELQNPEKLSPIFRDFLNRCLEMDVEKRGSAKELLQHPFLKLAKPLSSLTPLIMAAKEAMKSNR
Summary of the method: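 FRET-based peptide cleavage assay: 0.29-6 ng PAK2 and 2 μM Ser/Thr 20 peptide in 50 mM HEPES pH 7.5, 10 mM MgCl2, 1 mM EGTA, 0.01% BRIJ-35, 1% DMSO final. Kinase reaction 60 min at room temperature, then 60 min development; 10-point 3-fold titrations, percent phosphorylation from fluorescence.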

PAK1 = PAK1 (Homo sapiens, UniProt Q13153); assay: In vitro PAK inhibition assay (SelectScreen, Ser/Thr 19 peptide)
PAK1, sequence (Q13153 whole entry): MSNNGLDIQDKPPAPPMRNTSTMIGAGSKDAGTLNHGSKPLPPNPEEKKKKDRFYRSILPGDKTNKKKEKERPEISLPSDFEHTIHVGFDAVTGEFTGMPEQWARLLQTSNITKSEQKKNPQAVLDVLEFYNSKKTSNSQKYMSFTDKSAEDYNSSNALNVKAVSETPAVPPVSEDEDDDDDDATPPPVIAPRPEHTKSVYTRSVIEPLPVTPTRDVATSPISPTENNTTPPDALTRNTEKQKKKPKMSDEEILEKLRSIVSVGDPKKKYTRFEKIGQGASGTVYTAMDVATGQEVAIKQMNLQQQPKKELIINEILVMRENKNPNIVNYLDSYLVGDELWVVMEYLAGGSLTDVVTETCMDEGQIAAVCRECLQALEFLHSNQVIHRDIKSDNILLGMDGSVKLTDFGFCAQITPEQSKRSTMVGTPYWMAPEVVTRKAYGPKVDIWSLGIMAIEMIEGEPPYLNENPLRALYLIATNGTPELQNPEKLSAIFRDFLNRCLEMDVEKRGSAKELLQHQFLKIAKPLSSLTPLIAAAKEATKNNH
Summary of the method: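 Kinase reaction ran in 50 mM HEPES pH 7.5, 0.01% BRIJ-35, 10 mM MgCl2, 1 mM EGTA with Ser/Thr 19 peptide for 60 min at room temperature, followed by 60 min protease development. Fluorescence gave percent phosphorylation. Compounds were tested as 10-point, 3-fold titrations in 1% DMSO final.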

PAK3, sequence (O75914 whole entry): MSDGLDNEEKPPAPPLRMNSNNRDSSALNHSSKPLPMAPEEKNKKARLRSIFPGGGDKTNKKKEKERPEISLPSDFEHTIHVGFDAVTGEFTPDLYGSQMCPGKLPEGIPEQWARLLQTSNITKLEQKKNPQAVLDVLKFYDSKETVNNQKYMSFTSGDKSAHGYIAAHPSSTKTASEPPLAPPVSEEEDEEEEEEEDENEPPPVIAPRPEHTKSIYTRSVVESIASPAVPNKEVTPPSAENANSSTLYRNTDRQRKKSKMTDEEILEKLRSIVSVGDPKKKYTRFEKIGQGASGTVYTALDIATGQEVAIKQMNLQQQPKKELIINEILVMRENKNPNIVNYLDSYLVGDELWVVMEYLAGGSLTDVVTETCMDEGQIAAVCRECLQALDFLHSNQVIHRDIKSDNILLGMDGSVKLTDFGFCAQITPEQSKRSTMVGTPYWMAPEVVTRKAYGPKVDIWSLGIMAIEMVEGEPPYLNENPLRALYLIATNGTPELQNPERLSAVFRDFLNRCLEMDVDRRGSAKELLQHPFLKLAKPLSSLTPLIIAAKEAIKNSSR

Row | Structure (SMILES) | IC50 (PAK3) | IC50 (PAK4) | IC50 (PAK2 (PAK65)) | IC50 (PAK1)
1 | CCn1c(=O)c(-c2ccc(-c3cnn(C)c3)cc2)cc2cnc(Nc3ccc(N4CCN(C)CC4)cc3)nc21 | 500 to 5000 nM | ≥ 5000 nM | 50 to 500 nM | 50 to 500 nM
2 | CCn1c(=O)c(-c2ccc(-c3cccc4[nH]ccc34)cc2Cl)cc2cnc(Nc3ccc(N4CCN(C)CC4)cc3)nc21 | 50 to 500 nM | ≥ 5000 nM | 50 to 500 nM | < 50 nM
3 | CCn1c(=O)c(-c2ccc(-c3cccc4ncccc34)cc2Cl)cc2cnc(Nc3ccc(N4CCN(C)CC4)cc3)nc21 | 50 to 500 nM | ≥ 5000 nM | 50 to 500 nM | 50 to 500 nM
4 | CCn1c(=O)c(-c2ccc(-c3ccnn3C)cc2)cc2cnc(Nc3ccc(N4CCN(C)CC4)cc3)nc21 | 500 to 5000 nM | ≥ 5000 nM | 500 to 5000 nM | 50 to 500 nM
5 | CCn1c(=O)c(-c2ccc(-c3noc(C)n3)cc2Cl)cc2cnc(Nc3ccc(CCN4CCOCC4)cc3)nc21 | 50 to 500 nM | ≥ 5000 nM | 50 to 500 nM | 50 to 500 nM
6 | CCn1c(=O)c(-c2ccc(-c3cccnc3F)cc2Cl)cc2cnc(Nc3ccc(CCN4CCCC4)cc3)nc21 | < 50 nM | 50 to 500 nM | < 50 nM | < 50 nM
7 | CCn1c(=O)c(-c2ccc(-c3cnc(C)s3)cc2Cl)cc2cnc(Nc3ccc(CCN4CCCC4)cc3)nc21 | < 50 nM | 500 to 5000 nM | < 50 nM | < 50 nM
8 | Cc1ncc(-c2ccc(-c3cc4cnc(Nc5ccc(C6CCNCC6)cc5)nc4n(C)c3=O)c(Cl)c2)s1 | 50 to 500 nM | 500 to 5000 nM | < 50 nM | < 50 nM
9 | CCn1c(=O)c(-c2ccc(-c3cnc(C)s3)cc2Cl)cc2cnc(Nc3ccc(CCN4CCOCC4)cc3)nc21 | 50 to 500 nM | ≥ 5000 nM | 50 to 500 nM | 50 to 500 nM
10 | CCn1c(=O)c(-c2ccc(-c3cccnc3C)cc2Cl)cc2cnc(Nc3ccc(CCN4CCOCC4)cc3)nc21 | 50 to 500 nM | ≥ 5000 nM | 50 to 500 nM | 50 to 500 nM
11 | CCN(CC)CCc1ccc(Nc2ncc3cc(-c4ccc(-c5cccnc5C)cc4Cl)c(=O)n(CC)c3n2)cc1 | 50 to 500 nM | ≥ 5000 nM | < 50 nM | < 50 nM
12 | CCN(CC)CCc1ccc(Nc2ncc3cc(-c4ccc(-c5cccnc5F)cc4Cl)c(=O)n(CC)c3n2)cc1 | < 50 nM | 50 to 500 nM | < 50 nM | < 50 nM
13 | CCN(CC)CCc1ccc(Nc2ncc3cc(-c4ccc(-c5noc(C)n5)cc4Cl)c(=O)n(CC)c3n2)cc1 | < 50 nM | 500 to 5000 nM | < 50 nM | < 50 nM
14 | CCN(CC)CCc1ccc(Nc2ncc3cc(-c4ccc(-c5cnc(C)s5)cc4Cl)c(=O)n(CC)c3n2)cc1 | < 50 nM | 500 to 5000 nM | < 50 nM | < 50 nM
15 | CCn1c(=O)c(-c2ccc(-c3noc(C)n3)cc2F)cc2cnc(Nc3ccc(C4CCN(C)CC4)cc3)nc21 | 50 to 500 nM | ≥ 5000 nM | < 50 nM | < 50 nM
16 | CCn1c(=O)c(-c2ccc(-c3cnccn3)cc2F)cc2cnc(Nc3ccc(C4CCN(C)CC4)cc3)nc21 | < 50 nM | 50 to 500 nM | < 50 nM | < 50 nM
17 | CCn1c(=O)c(-c2ccc(-c3cc(C(F)(F)F)ncn3)cc2Cl)cc2cnc(Nc3ccc(C4CCN(C)CC4)cc3)nc21 | 50 to 500 nM | ≥ 5000 nM | 50 to 500 nM | 50 to 500 nM
18 | CCn1c(=O)c(-c2ccc(-c3cc(NC4CC4)ncn3)cc2Cl)cc2cnc(Nc3ccc(C4CCN(C)CC4)cc3)nc21 | 50 to 500 nM | ≥ 5000 nM | 50 to 500 nM | 50 to 500 nM
19 | CCOC(=O)c1cncnc1-c1ccc(-c2cc3cnc(Nc4ccc(C5CCN(C)CC5)cc4)nc3n(CC)c2=O)c(Cl)c1 | 500 to 5000 nM | ≥ 5000 nM | 500 to 5000 nM | 500 to 5000 nM
20 | CCn1c(=O)c(-c2ccc(-c3ccnc(C(F)(F)F)n3)cc2Cl)cc2cnc(Nc3ccc(C4CCN(C)CC4)cc3)nc21 | 50 to 500 nM | ≥ 5000 nM | < 50 nM | < 50 nM
21 | CCn1c(=O)c(-c2ccc(-c3noc(C)n3)nc2)cc2cnc(Nc3ccc(C4CCN(C)CC4)cc3)nc21 | 500 to 5000 nM | ≥ 5000 nM | 500 to 5000 nM | 500 to 5000 nM
22 | Cc1ncc(-c2cc(Cl)c(-c3cc4cnc(Nc5ccc(C6CCN(C)CC6)cc5)nc4n(C)c3=O)cc2F)s1 | < 50 nM | ≥ 5000 nM | < 50 nM | < 50 nM
23 | Cc1nc(-c2cc(Cl)c(-c3cc4cnc(Nc5ccc(C6CCN(C)CC6)cc5)nc4n(C)c3=O)cc2F)no1 | < 50 nM | ≥ 5000 nM | < 50 nM | < 50 nM
24 | CCn1c(=O)c(-c2ccc(-c3cnc(C)s3)cn2)cc2cnc(Nc3ccc(C4CCN(C)CC4)cc3)nc21 | > 5000 nM | ≥ 5000 nM | > 5000 nM | 500 to 5000 nM
25 | CCn1c(=O)c(-c2ccc(-c3cnc(C)s3)nc2)cc2cnc(Nc3ccc(C4CCN(C)CC4)cc3)nc21 | 500 to 5000 nM | ≥ 5000 nM | 500 to 5000 nM | 500 to 5000 nM
26 | CN1CCC(c2ccc(Nc3ncc4cc(-c5cc(-c6cccnc6)ccc5Cl)c(=O)n(C)c4n3)cc2)CC1 | 500 to 5000 nM | ≥ 5000 nM | 500 to 5000 nM | 50 to 500 nM
27 | CN(C)CCc1ccc(Nc2ncc3cc(-c4ccc(-c5cccnc5N(C)C)cc4Cl)c(=O)n(C)c3n2)cc1 | 500 to 5000 nM | ≥ 5000 nM | 500 to 5000 nM | 50 to 500 nM
28 | CCn1c(=O)c(-c2ccc(-c3noc(C)n3)cn2)cc2cnc(Nc3ccc(C4CCN(C)CC4)cc3)nc21 | > 5000 nM | ≥ 5000 nM | > 5000 nM | 500 to 5000 nM
29 | Cc1nccnc1-c1ccc(-c2cc3cnc(Nc4ccc(C5CCN(C)CC5)cc4)nc3n(C)c2=O)c(Cl)c1 | < 50 nM | ≥ 5000 nM | < 50 nM | < 50 nM
30 | CCn1c(=O)c(-c2ccc(-c3nccnc3C)cc2Cl)cc2cnc(Nc3ccccc3)nc21 | 50 to 500 nM | ≥ 5000 nM | 50 to 500 nM | 50 to 500 nM

Second part, the compound after the results:

Row | IC50 (PAK3) | IC50 (PAK4) | IC50 (PAK2 (PAK65)) | IC50 (PAK1) | Structure (SMILES)
31 | 50 to 500 nM | ≥ 5000 nM | 50 to 500 nM | < 50 nM | CCn1c(=O)c(-c2ccc(-c3cccnc3C)cc2C)cc2cnc(Nc3ccc(C4CCN(C)CC4)cc3)nc21
32 | < 50 nM | 500 to 5000 nM | < 50 nM | < 50 nM | CCn1c(=O)c(-c2ccc(-c3noc(C)n3)cc2C)cc2cnc(Nc3ccc(C4CCN(C)CC4)cc3)nc21
33 | 500 to 5000 nM | ≥ 5000 nM | 50 to 500 nM | 50 to 500 nM | Cc1ncccc1-c1cc(Cl)c(-c2cc3cnc(Nc4ccc(C5CCN(C)CC5)cc4)nc3n(C)c2=O)cc1F
34 | 50 to 500 nM | ≥ 5000 nM | < 50 nM | < 50 nM | CN1CCC(c2ccc(Nc3ncc4cc(-c5cc(F)c(-c6cccnc6F)cc5Cl)c(=O)n(C)c4n3)cc2)CC1
35 | 50 to 500 nM | ≥ 5000 nM | 50 to 500 nM | < 50 nM | CCn1c(=O)c(-c2ccc(-c3cc(C)ncn3)cc2Cl)cc2cnc(Nc3ccc(C4CCN(C)CC4)cc3)nc21
36 | < 50 nM | 500 to 5000 nM | < 50 nM | < 50 nM | CCn1c(=O)c(-c2ccc(-c3ccccc3F)cc2Cl)cc2cnc(Nc3ccc(C4CCN(C)CC4)cc3)nc21
37 | 50 to 500 nM | ≥ 5000 nM | 50 to 500 nM | < 50 nM | CCn1c(=O)c(-c2ccc(-c3cnc(C)o3)cc2Cl)cc2cnc(Nc3ccc(C4CCN(C)CC4)cc3)nc21
38 | 50 to 500 nM | ≥ 5000 nM | < 50 nM | < 50 nM | CCn1c(=O)c(-c2ccc(-c3cc(C)nc(C)n3)cc2Cl)cc2cnc(Nc3ccc(C4CCN(C)CC4)cc3)nc21
39 | 50 to 500 nM | ≥ 5000 nM | 50 to 500 nM | < 50 nM | CCn1c(=O)c(-c2ccc(-c3cc(N(C)C)ncn3)cc2Cl)cc2cnc(Nc3ccc(C4CCN(C)CC4)cc3)nc21
40 | < 50 nM | 500 to 5000 nM | < 50 nM | < 50 nM | CCn1c(=O)c(-c2ccc(-c3ncncc3F)cc2Cl)cc2cnc(Nc3ccc(C4CCN(C)CC4)cc3)nc21
41 | > 5000 nM | ≥ 5000 nM | > 5000 nM | > 5000 nM | CCn1c(=O)c(-c2ccc(-c3cccnc3C)cn2)cc2cnc(Nc3ccc(C4CCN(C)CC4)cc3)nc21
42 | 50 to 500 nM | ≥ 5000 nM | < 50 nM | < 50 nM | CCc1cc(-c2ccc(-c3cc4cnc(Nc5ccc(C6CCN(C)CC6)cc5)nc4n(CC)c3=O)c(Cl)c2)ncn1
43 | < 50 nM | 50 to 500 nM | < 50 nM | < 50 nM | CCn1c(=O)c(-c2cc(C)c(-c3cccnc3)cc2Cl)cc2cnc(Nc3ccc(C4CCN(C)CC4)cc3)nc21
44 | 50 to 500 nM | ≥ 5000 nM | < 50 nM | < 50 nM | CCn1c(=O)c(-c2cc(C)c(-c3cccnc3C)cc2Cl)cc2cnc(Nc3ccc(C4CCN(C)CC4)cc3)nc21
